According to patent publication US10131652B2, “Pyrimidinyloxy benzene derivatives as herbicides” (E. I. DU PONT DE NEMOURS AND COMPANY, priority 2014, dated 2018):
Read-outs that look alike come from different tables or passages of the source.

Tests used:
Assay type in all cases: in vivo
[1] = system: barnyardgrass (Echinochloa crus-galli); experiment: Test B pre-/postemergence plant response; details: Echinochloa crus-galli, 240 h, read-out: Plant response rating, Barnyardgrass; for pest or weed control at 125 g/ha: 125 g ai/ha; for pest or weed control at 500 g/ha: 500 g ai/ha; for pest or weed control at 500 g/ha / pest or weed control at 1000 g/ha: 0 to 100 scale (0 no effect, 100 complete control); for pest or weed control at 1000 g/ha: 1000 g ai/ha
In short: (§1)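 Greenhouse pots, loam/sand soil; compound formulated with surfactant in non-phytotoxic solvent. Preemergence soil spray and postemergence spray at 1–2 leaf stage run simultaneously. Visual injury, 0–100, about 10 days post-treatment.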

corn (Zea mays) = experiment: Test B pre-/postemergence plant response; details: Zea mays, 240 h; for Corn plant response rating (crop injury, 0 = no effect, 100 = complete kill) at 125 g/ha: 125 g ai/ha; for Corn plant response rating (crop injury, 0 = no effect, 100 = complete kill) at 500 g/ha: 500 g ai/ha; for Corn plant response rating (crop injury, 0 = no effect, 100 = complete kill) at 500 g/ha / Corn plant response rating (crop injury, 0 = no effect, 100 = complete kill) at 1000 g/ha: 0 to 100 scale (0 no effect, 100 complete control); for Corn plant response rating (crop injury, 0 = no effect, 100 = complete kill) at 1000 g/ha: 1000 g ai/ha
In short: as §1

[2] = system: giant foxtail (Setaria faberii); experiment: Test B pre-/postemergence plant response; details: Setaria faberi, 240 h, read-out: Plant response rating, Foxtail, Giant; for pest or weed control at 125 g/ha: 125 g ai/ha; for pest or weed control at 500 g/ha: 500 g ai/ha; for pest or weed control at 500 g/ha / pest or weed control at 1000 g/ha: 0 to 100 scale (0 no effect, 100 complete control); for pest or weed control at 1000 g/ha: 1000 g ai/ha
In short: as §1

[3] = system: pigweed (Amaranthus retroflexus); experiment: Test B pre-/postemergence plant response; details: Amaranthus retroflexus, 240 h, read-out: Plant response rating, Pigweed; for pest or weed control at 125 g/ha: 125 g ai/ha; for pest or weed control at 500 g/ha: 500 g ai/ha; for pest or weed control at 500 g/ha / pest or weed control at 1000 g/ha: 0 to 100 scale (0 no effect, 100 complete control); for pest or weed control at 1000 g/ha: 1000 g ai/ha
In short: as §1

[4] = system: wheat (Triticum aestivum); experiment: Test B pre-/postemergence plant response; details: Triticum aestivum, 240 h, read-out: Plant response rating, Wheat; for plant injury at 125 g/ha: 125 g ai/ha; for plant injury at 500 g/ha: 500 g ai/ha; for plant injury at 500 g/ha / plant injury at 1000 g/ha: 0 to 100 scale (0 no effect, 100 complete control); for plant injury at 1000 g/ha: 1000 g ai/ha
In short: as §1

[5] = system: barnyardgrass (Echinochloa crus-galli); experiment: Test C flooded paddy test plant response; details: Echinochloa crus-galli; Flood, 250 g ai/ha; scale of 0 to 100 where 0 is no effect and 100 is complete control; 13 to 15 days; read-out: Barnyardgrass plant response rating
In short: (§2)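 2-leaf plants; flood 3 cm, cpd into paddy water; greenhouse 13–15 d; visual score vs untreated, 0 = no effect, 100 = complete control; dash = no result.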

[6] = system: ducksalad (Heteranthera limosa); experiment: Test C flooded paddy test plant response; details: Heteranthera limosa; Flood, 250 g ai/ha; scale of 0 to 100 where 0 is no effect and 100 is complete control; 13 to 15 days; read-out: Ducksalad plant response rating
In short: as §2

rice (Oryza sativa) = experiment: Test C flooded paddy test plant response; details: Oryza sativa; Flood, 250 g ai/ha; scale of 0 to 100 where 0 is no effect and 100 is complete control; 13 to 15 days; read-out: Rice plant response rating
In short: as §2

[7] = system: small-flower umbrella sedge (Cyperus difformis); experiment: Test C flooded paddy test plant response; details: Cyperus difformis; Flood, 250 g ai/ha; scale of 0 to 100 where 0 is no effect and 100 is complete control; 13 to 15 days; read-out: Sedge, Umbrella plant response rating
In short: as §2

[8] = post-emergence, postemergence, 0 to 100 scale, 0 no effect, 100 complete control
[9] = pre-emergence, Preemergence, 0 to 100 scale where 0 is no effect and 100 is complete control

Row | SMILES | pest or weed control at 125 g/ha [1, 8] [%] | pest or weed control at 500 g/ha ([1]; post-emergence, Postemergence) [%] | pest or weed control at 125 g/ha [1, 9] [%] | pest or weed control at 500 g/ha ([1]; pre-emergence, Preemergence) [%] | Corn plant response rating (crop injury, 0 = no effect, 100 = complete kill) at 125 g/ha (corn (Zea mays); [8]) [%] | Corn plant response rating (crop injury, 0 = no effect, 100 = complete kill) at 500 g/ha (corn (Zea mays); post-emergence, Postemergence) [%] | Corn plant response rating (crop injury, 0 = no effect, 100 = complete kill) at 125 g/ha (corn (Zea mays); [9]) [%] | Corn plant response rating (crop injury, 0 = no effect, 100 = complete kill) at 500 g/ha (corn (Zea mays); pre-emergence, Preemergence) [%] | pest or weed control at 125 g/ha [2, 8] [%] | pest or weed control at 500 g/ha ([2]; post-emergence, Postemergence) [%] | pest or weed control at 125 g/ha [2, 9] [%] | pest or weed control at 500 g/ha ([2]; pre-emergence, Preemergence) [%] | pest or weed control at 125 g/ha [3, 8] [%] | pest or weed control at 500 g/ha ([3]; post-emergence, Postemergence) [%] | pest or weed control at 125 g/ha [3, 9] [%] | pest or weed control at 500 g/ha ([3]; pre-emergence, Preemergence) [%] | plant injury at 125 g/ha [4, 8] [%] | plant injury at 500 g/ha ([4]; post-emergence, Postemergence) [%] | plant injury at 125 g/ha [4, 9] [%] | plant injury at 500 g/ha ([4]; pre-emergence, Preemergence) [%] | other results
1 | FC(F)(F)c1nccc(-c2ccccc2Oc2ncc(Br)cn2)n1 [Compound 21, 4-[2-[(5-bromo-2-pyrimidinyl)oxy]phenyl]-2-(trifluoromethyl)pyrimidine] | 0 | 60 | 0 | 50 | 0 | 40 | 0 | 0 | 0 | 60 | 70 | 100 | 80 | 100 | 30 | 90 | 0 | 0 | 0 | 0 | pest or weed control at 250 g/ha [5]: 0%; pest or weed control at 250 g/ha [6]: 0%; plant injury at 250 g/ha (rice (Oryza sativa)): 0%; pest or weed control at 250 g/ha [7]: 0%
2 | Cc1ccc(Oc2ncc(Cl)cn2)c(-c2ccc(C(F)(F)F)nc2)c1 [Compound 22, 5-chloro-2-[4-methyl-2-[6-(trifluoromethyl)-3-pyridinyl]phenoxy]pyrimidine] | 0 | 0 | 0 | 0 | 0 | 0 | 0 | 0 | 0 | 0 | 0 | 0 | 0 | 0 | 0 | 0 | 0 | 0 | 0 | 0 | pest or weed control at 250 g/ha [5]: 0%; pest or weed control at 250 g/ha [6]: 0%; plant injury at 250 g/ha (rice (Oryza sativa)): 0%; pest or weed control at 250 g/ha [7]: 0%
3 | Clc1ccc(-c2c(Cl)cccc2Oc2ncc(Cl)cn2)nc1 [Compound 23, 5-chloro-2-[3-chloro-2-(5-chloro-2-pyridinyl)phenoxy]pyrimidine] | 0 | 50 | 0 | 30 | 10 | 20 | 0 | 0 | 10 | 70 | 20 | 70 | 70 | 100 | 50 | 90 | 0 | 0 | 0 | 0 | pest or weed control at 1000 g/ha ([1]; post-emergence, Postemergence): 50%; pest or weed control at 1000 g/ha ([1]; pre-emergence, Preemergence): 40%; Corn plant response rating (crop injury, 0 = no effect, 100 = complete kill) at 1000 g/ha (corn (Zea mays); post-emergence, Postemergence): 20%; Corn plant response rating (crop injury, 0 = no effect, 100 = complete kill) at 1000 g/ha (corn (Zea mays); pre-emergence, Preemergence): 0%; pest or weed control at 1000 g/ha ([2]; post-emergence, Postemergence): 70%; pest or weed control at 1000 g/ha ([2]; pre-emergence, Preemergence): 100%; pest or weed control at 1000 g/ha ([3]; post-emergence, Postemergence): 100%; pest or weed control at 1000 g/ha ([3]; pre-emergence, Preemergence): 100%; plant injury at 1000 g/ha ([4]; post-emergence, Postemergence): 0%; plant injury at 1000 g/ha ([4]; pre-emergence, Preemergence): 0%; pest or weed control at 250 g/ha [5]: 0%; pest or weed control at 250 g/ha [6]: 60%; plant injury at 250 g/ha (rice (Oryza sativa)): 0%; pest or weed control at 250 g/ha [7]: 40%
4 | Cc1ccc(Oc2ncc(Cl)cn2)c(-c2ccnc(C(F)(F)F)c2)c1 [Compound 24, 5-chloro-2-[4-methyl-2-[2-(trifluoromethyl)-4-pyridinyl]phenoxy]pyrimidine] | 0 | 60 | 10 | 80 | 0 | 40 | 0 | 40 | 30 | 90 | 20 | 90 | 20 | 40 | 0 | 40 | 0 | 0 | 0 | 0 | pest or weed control at 250 g/ha [5]: 0%; pest or weed control at 250 g/ha [6]: 0%; plant injury at 250 g/ha (rice (Oryza sativa)): 0%; pest or weed control at 250 g/ha [7]: 40%
